Reference: paper PMC10667816, “A Cell‐Penetrant Peptide Disrupting the Transcription Factor CP2c Complexes Induces Cancer‐Specific Synthetic Lethality” (Advanced Science, 2023)
*1 amine or outer side, *2 acyl side, *3 side chain or, on linkers, in order; H or OH if unused. Where a SMILES comes first, the peptide text is derived from it. Side-chain parts run from the residue outwards. The star is where a group is joined. γGlu = O=C(O)[C@H](CCC(=O)[*:2])N[*:1]; Palmitoyl = CCCCCCCCCCCCCCCC(=O)*

Columns and labels:
[1] = Storage stability of peptide activity; type: physicochemical; settings: stored in powder or solution form in a deep freezer
[2] = Nanoparticle formation in solution (DLS); type: physicochemical; settings: DLS in saline, 25 °C, each sample analyzed five times
Procedure: For determining the dimensions and nanoparticle formation of the peptides in solution, DLS analysis was performed using the Scatteroscope I nanoparticle size analyzer (K‐One, SOS1). Saline served as the negative control, and all experiments were conducted at a constant temperature of 25 °C. Each sample was analyzed five times, and the resulting data were graphically presented, incorporating all five profiles obtained from the experiments. The purity and dimer formation of the peptides were analyzed using HPLC and LC‐MS. HPLC analysis was carried out using a Shimadzu HPLC LabSolution equipped with a pump, an autosampler, a column oven, and a UV–vis detector. Chromatographic separation was performed on a Shimadzu C18 analytical column at 35 °C, with an injection volume of 20 µL (0.5 mg mL^−1). The mobile phases consisted of 0.05% trifluoroacetic acid (TFA) in water (A) and 0.05% TFA in acetonitrile (B). The flow rate was maintained at 1 mL min^−1, and the gradient program was as follows: 20–80% B over 30 min. Ionization was achieved using electrospray ionization (ESI) in positive mode with selected reaction monitoring (SRM). Mass spectrometry analysis was performed with an ESI source in the positive‐ionization mode.

[3] = tested on: MDA‐MB‐231 LM1 breast cancer; experiment: MDA‐MB‐231 LM1 CDX mouse model; type: in vivo
Procedure: Animal experiments were conducted in accordance with ethical guidelines, and all protocols were approved by the Institutional Animal Care and Use Committee under Hanyang University (approval numbers, 2014‐0016A, 2018‐0049A, 2018‐0207A, and 2019‐0169A), Chung‐Ang University (approval number, 2015‐00022), Chungbuk University (approval number, CBNUA‐1072‐17‐02), and Konkuk University (approval number, KU17130). To establish xenograft mice models, Hep3B, A431, U343, and PC9 cells were subcutaneously injected into the flank of Balb/c nude mice. For the MDA‐MB‐231 (LM1) cell line, it was implanted into the mammary fat pad of immunodeficient mice (NPG mice). […] Tumor volume was calculated using the formula of length × width^2)/2. […] The in vivo administration amount was determined based on the concentration of ACP52C confirmed at the cellular level, which was 2 µM. […] For ACP52C derivatives, the amount was adjusted to ensure a similar molar quantity of peptide injection, taking their molecular weights into account. For instance, in the case of ACP52CGK, ≈1.67 times the quantity was used compared to ACP52C to achieve an equivalent molar quantity. […] Hematoxylin and eosin (H&E)‐stained tissue sections were analyzed and photographed, and the representative histological images were recorded. […]

[4] = tested on: murine erythroleukemia (MEL) cells; experiment: Erythroid differentiation of MEL cells; type: cell-based; settings: HMBA‐induced MEL cells, supplementation to the culture
Procedure: Information of the cell lines is listed in Table S1 (Supporting Information), including their origin and culture conditions. All cell lines were cultured at 37 °C, 5% CO2 incubator. MDA‐MB‐231 (LM1), HepG2, Hep3B, and HCT116 cell lines were authenticated with short tandem repeat markers based on ATCC information. All cell lines tested negative for mycoplasma contamination. Transient downregulation of the gene of interest was conducted by siRNA transfection using Lipofectamine 2000 (Thermo Fisher, 11668019) according to the manufacturer's instructions. Information about siRNAs is provided in Table S2 (Supporting Information). Stable cell lines were established by transfecting cells using Effectene reagent (Qiagen, 301425), followed by selection of cell clones in the presence of 1 µg mL^−1 puromycin (Sigma–Aldrich, P8833). The establishment of cell lines was confirmed by WB or RT‐qPCR. For doxycycline‐inducible gene expression regulation, cell lines were incubated in the presence of 1 µg mL^−1 doxycycline (Sigma–Aldrich, D9891) for 2–3 days. To promote sphere formation of the cell lines, each well of the tissue culture dish was coated with 10% poly 2‐hydroxyethyl methacrylate (polyHEMA). An appropriate number of cells per well were seeded in serum‐free DMEM/F12 (HyClone, SH30023.01) supplemented with B27, 20 ng mL^−1 bFGF, and 20 ng mL^−1 EGF. For erythroid terminal differentiation experiments, differentiation was assessed by hemoglobin staining using a 0.2% (w/v) tetramethylbenzidine solution (Sigma–Aldrich, T0440) in 0.6% hydrogen peroxide, 3% acetic acid for 10 min in dark condition. Benzidine‐positive or negative cell numbers were counted under the inverted microscope BX50 (Olympus) at 200 × magnification. […] After each synchronization, cells were fixed at 4‐h intervals for 24 h with ACP52C treatment, and the cell cycle was analyzed by Propidium Iodide (PI) staining or intracellular protein was analyzed by immunofluorescence. […] This development period was repeated four times for one round, after which GI50 concentrations were re‐assessed in each resistant cell line. […]

SMILES	loss of activity on storage [1]	nanoparticle formation [2]	anti‐tumor efficacy ([3]; administered at five‐day intervals, NPG mice)	inhibition of erythroid differentiation [4]	tumor weight ([3]; intravenous injection every 2 or 3 days from day 14)
CCCCCCCCCCCCCCCC(=O)N[C@@H](CCC(=O)NCCCC[C@H](NC(=O)CNC(=O)CNC(=O)[C@@H]1CCCN1C(=O)[C@H](CCCNC(=N)N)NC(=O)[C@H](CCC(N)=O)NC(=O)[C@@H]1CCCN1C(=O)[C@H](Cc1ccc(O)cc1)NC(=O)[C@H](CC(N)=O)NC(C)=O)C(=O)NCC(=O)NCC(=O)N[C@@H](CS)C(=O)N[C@@H](CCCNC(=N)N)C(=O)NCC(=O)N[C@@H](CC(=O)O)C(=O)N[C@@H](CCCCN)C(=O)NCC(=O)N1CCC[C@H]1C(=O)N[C@@H](CC(=O)O)C(=O)N[C@@H](CS)C(N)=O)C(=O)O [ACP52CGK] (Ac-NYPQRPGGK([γGlu-Palmitoyl])GGCRGDKGPDC-NH2)	gradually lose their activity over one year	significant reduction in nanoparticle formation	remarkable anti‐tumor efficacy	–	–
CCOc1ccccc1C1CC(=O)Nc2cc3c(cc21)OCO3 (centres unmarked) [FQI1, Factor Quinolinone Inhibitor 1, reference compound]	–	–	–	limited inhibitory effects on MEL cell differentiation in vitro	–
CC(=O)N[C@@H](CC(N)=O)C(=O)N[C@@H](Cc1ccc(O)cc1)C(=O)N1CCC[C@H]1C(=O)N[C@@H](CCC(N)=O)C(=O)N[C@@H](CCCNC(=N)N)C(=O)N1CCC[C@H]1C(=O)N[C@@H](CS)C(=O)N[C@@H](CCCNC(=N)N)C(=O)NCC(=O)N[C@@H](CC(=O)O)C(=O)N[C@@H](CCCCN)C(=O)NCC(=O)N1CCC[C@H]1C(=O)N[C@@H](CC(=O)O)C(=O)N[C@@H](CS)C(N)=O [ACP52C] (Ac-NYPQRPCRGDKGPDC-NH2)	gradually lose their activity over one year	majority of ACP52C exists in the form of nanoparticles in saline	–	inhibition of erythroid differentiation	significantly reduced tumor weight
